The EC50 is the midpoint of the concentration-response curve. Read a low EC50 as an effect from little substance.

This is an account of results in patent US20260297094A1, “Tetracyclic Compounds as SMARCA2 and/or SMARCA4 Degraders” (Aurigene Oncology Limited, priority 2023, published 2026).

Structures can show the parent of a compound that is named as a salt.

Common to all, as to assay type: cell-based
The target in one assay is T1, SMARCA4 (Homo sapiens, UniProt P51532).
T1 construct: endogenous in cells; host or cells: MV-4-11 (CRL-9591)
Kind of assay: SMARCA4 degradation in MV-4-11 cells by Western blot. To be noted: MV4-11, at 100 nM, 16 hours, vs DMSO, read-out: Percent degradation SMARCA4. How it is done:
(§1) Example-P3: Determination of SMARCA2 and SMARCA4 Degradation in MV-4-11 Cells by Western Blot
(§2) MV-4-11 (CRL-9591™) cells were plated in 6 well plates using complete Iscove's Modified Dulbecco's Medium. On the third day, compounds of present invention were added to cells from 10 mM stocks made in DMSO (Sigma Cat no. D2650). Each concentration of compound was tested with DMSO not exceeding final percentage of 0.1 in the cells. Cells were incubated with the compound for 16 hours followed by harvesting with 1×RIPA lysis buffer (Thermo Fischer, catalogue number #89900) containing protease inhibitor cocktail (Sigma catalogue number #P-8340). Equal amount of protein was loaded on SDS PAGE gel for electrophoresis. Western blot was carried out for detection of either SMARCA2 (Cell signalling technologies, catalogue number #11966) or SMARCA4 antibody (Cell signalling technologies, catalogue number #52251). Beta-Tubulin antibody (Cell signalling technologies, catalogue number #86298) was used as loading control. Percentage of SMARCA2 or SMARCA4 degradation was calculated using formula % Degradation=100−(normalized band intensity in treated sample/normalized band intensity in DMSO sample)*100. Here, “ND” refers to Not determined.
For orientation: Immunoblotting shows a protein as a band on a membrane.

The next assay deals with MV-4-11 cells. Nature of the assay: Anti proliferative activity in MV-4-11 cells by Cell Titer Glo (Promega) assay. To be noted: Homo sapiens, MV4-11, 72 h, 3 days, CellTiter-Glo. How it is done:
Example-P2: Determination of Anti Proliferative Activity of Compounds in Cell Lines MV-4-11 by Cell Titer Glo® (Promega) Assay
MV-4-11 (CRL-9591™) cells were seeded in 96 well plate flat black clear bottom plates (Corning, Cat. No 3904) using complete DMEM Medium. Next day, selected compounds of the present invention were added to cells from 10 mM stocks made in DMSO (Sigma Cat no. D2650). Each concentration of compound was tested in triplicate with DMSO concentration at a final percentage not exceeding 0.3 in the cells. After the incubation of MV-4-11 cells with compound for 3 days; assay was terminated using 100 μl of CellTiter Glo® reagent (Promega, Cat. no G7572). CellTiter-Glo® Luminescent reagent determines the number of viable cells based on quantitation of ATP present which is an indicator of cell number and metabolic activity. Luminescence readings were taken in Victor-5 instrument. Percent inhibition of proliferation was calculated using formula, % inhibition=100−(luminescence value of test/luminescence value of DMSO control)*100. DMSO control (0%)=Cells in complete media with DMSO; blank=Media alone containing DMSO. EC50 was calculated using graph pad prism software.

The target of another assay is T2, SMARCA2 (Homo sapiens, UniProt P51531).
T2 construct: endogenous in cells; host or cells: MV-4-11 (CRL-9591)
Nature of the assay: SMARCA2 degradation in MV-4-11 cells by Western blot. To be noted: MV4-11, 16 h, at 100 nM, vs DMSO, read-out: Percent degradation SMARCA2. How it is done:
as §1, §2

Another assay relates to SK-MEL-5 cells. Nature of the assay: Anti proliferative activity in SK-MEL-5 cells by Cell Titer Glo (Promega) assay. Particulars: Homo sapiens, retreatment on Day 4, terminated on day 8, CellTiter-Glo. Here is the method: Example-P1: Determination of Anti Proliferative Activity of Compounds in Cell Lines SK-MEL-5 by Cell Titer Glo® (Promega) Assay
Cells were seeded into 96-well plates and the plate was incubated in 37 degrees incubator overnight. The next day, compounds were diluted 3-fold to cover 9-point concentration range in DMSO. Intermediate plate dilution was prepared in media followed with compound treatment in cells. Retreatment of cells with compound dilutions was performed on Day 4 and assay was terminated on day 8 for SK-MEL-5 cells using CellTiter-Glo and the plate was kept on orbital shaker for 20 minutes at RT. Assay was terminated on day 6 for RERF-LC-A1 without a compound retreatment. Luminescence signal was recorded on VICTOR^3 instrument. Percent inhibition of proliferation was calculated at each concentration and plotted against the compound concentration. EC50 value was calculated using GraphPad® software.
(In general: ATP-based viability assays read luminescence as a measure of living cells.)

T1 sequence (P51532 whole entry): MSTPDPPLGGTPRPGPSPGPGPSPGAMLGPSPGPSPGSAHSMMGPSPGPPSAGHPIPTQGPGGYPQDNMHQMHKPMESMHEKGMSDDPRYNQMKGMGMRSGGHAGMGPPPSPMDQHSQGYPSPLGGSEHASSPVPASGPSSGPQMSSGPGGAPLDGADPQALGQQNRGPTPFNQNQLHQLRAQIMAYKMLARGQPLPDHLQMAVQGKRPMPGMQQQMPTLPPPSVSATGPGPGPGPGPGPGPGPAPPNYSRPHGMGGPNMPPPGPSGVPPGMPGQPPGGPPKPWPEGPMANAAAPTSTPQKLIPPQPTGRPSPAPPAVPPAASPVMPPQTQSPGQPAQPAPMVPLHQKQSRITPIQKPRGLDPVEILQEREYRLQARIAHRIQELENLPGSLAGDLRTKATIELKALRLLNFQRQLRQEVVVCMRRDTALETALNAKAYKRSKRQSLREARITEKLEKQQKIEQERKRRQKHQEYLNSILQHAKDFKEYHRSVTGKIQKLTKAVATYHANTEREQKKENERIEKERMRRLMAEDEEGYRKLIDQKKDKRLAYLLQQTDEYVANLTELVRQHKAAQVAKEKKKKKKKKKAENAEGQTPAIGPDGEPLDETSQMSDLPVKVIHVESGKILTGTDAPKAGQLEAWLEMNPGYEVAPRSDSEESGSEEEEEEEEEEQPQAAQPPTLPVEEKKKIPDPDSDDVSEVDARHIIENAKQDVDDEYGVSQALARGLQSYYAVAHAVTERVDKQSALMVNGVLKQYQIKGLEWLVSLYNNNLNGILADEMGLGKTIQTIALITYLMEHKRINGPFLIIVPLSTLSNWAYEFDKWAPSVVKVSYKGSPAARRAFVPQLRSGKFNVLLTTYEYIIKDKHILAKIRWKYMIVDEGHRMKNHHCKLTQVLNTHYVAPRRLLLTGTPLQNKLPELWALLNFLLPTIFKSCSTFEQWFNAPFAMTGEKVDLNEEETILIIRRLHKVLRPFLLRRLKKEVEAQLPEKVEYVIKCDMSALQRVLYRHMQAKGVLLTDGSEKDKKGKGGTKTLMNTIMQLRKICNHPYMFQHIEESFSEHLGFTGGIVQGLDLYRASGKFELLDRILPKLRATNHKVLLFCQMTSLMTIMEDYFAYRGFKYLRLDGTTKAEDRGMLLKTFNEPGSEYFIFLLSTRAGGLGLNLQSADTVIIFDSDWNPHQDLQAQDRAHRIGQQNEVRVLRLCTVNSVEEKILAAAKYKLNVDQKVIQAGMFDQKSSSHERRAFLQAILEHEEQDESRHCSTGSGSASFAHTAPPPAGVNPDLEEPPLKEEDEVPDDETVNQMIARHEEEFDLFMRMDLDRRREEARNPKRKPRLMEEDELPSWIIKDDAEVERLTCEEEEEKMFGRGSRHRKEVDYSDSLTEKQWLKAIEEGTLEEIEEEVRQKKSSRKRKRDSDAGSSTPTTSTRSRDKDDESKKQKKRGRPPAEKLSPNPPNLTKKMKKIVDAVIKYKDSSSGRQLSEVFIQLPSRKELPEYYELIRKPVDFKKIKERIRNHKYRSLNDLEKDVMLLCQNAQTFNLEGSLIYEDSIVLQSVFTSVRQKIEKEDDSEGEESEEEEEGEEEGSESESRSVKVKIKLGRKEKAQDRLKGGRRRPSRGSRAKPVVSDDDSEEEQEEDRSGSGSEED
T2 sequence (P51531 whole entry): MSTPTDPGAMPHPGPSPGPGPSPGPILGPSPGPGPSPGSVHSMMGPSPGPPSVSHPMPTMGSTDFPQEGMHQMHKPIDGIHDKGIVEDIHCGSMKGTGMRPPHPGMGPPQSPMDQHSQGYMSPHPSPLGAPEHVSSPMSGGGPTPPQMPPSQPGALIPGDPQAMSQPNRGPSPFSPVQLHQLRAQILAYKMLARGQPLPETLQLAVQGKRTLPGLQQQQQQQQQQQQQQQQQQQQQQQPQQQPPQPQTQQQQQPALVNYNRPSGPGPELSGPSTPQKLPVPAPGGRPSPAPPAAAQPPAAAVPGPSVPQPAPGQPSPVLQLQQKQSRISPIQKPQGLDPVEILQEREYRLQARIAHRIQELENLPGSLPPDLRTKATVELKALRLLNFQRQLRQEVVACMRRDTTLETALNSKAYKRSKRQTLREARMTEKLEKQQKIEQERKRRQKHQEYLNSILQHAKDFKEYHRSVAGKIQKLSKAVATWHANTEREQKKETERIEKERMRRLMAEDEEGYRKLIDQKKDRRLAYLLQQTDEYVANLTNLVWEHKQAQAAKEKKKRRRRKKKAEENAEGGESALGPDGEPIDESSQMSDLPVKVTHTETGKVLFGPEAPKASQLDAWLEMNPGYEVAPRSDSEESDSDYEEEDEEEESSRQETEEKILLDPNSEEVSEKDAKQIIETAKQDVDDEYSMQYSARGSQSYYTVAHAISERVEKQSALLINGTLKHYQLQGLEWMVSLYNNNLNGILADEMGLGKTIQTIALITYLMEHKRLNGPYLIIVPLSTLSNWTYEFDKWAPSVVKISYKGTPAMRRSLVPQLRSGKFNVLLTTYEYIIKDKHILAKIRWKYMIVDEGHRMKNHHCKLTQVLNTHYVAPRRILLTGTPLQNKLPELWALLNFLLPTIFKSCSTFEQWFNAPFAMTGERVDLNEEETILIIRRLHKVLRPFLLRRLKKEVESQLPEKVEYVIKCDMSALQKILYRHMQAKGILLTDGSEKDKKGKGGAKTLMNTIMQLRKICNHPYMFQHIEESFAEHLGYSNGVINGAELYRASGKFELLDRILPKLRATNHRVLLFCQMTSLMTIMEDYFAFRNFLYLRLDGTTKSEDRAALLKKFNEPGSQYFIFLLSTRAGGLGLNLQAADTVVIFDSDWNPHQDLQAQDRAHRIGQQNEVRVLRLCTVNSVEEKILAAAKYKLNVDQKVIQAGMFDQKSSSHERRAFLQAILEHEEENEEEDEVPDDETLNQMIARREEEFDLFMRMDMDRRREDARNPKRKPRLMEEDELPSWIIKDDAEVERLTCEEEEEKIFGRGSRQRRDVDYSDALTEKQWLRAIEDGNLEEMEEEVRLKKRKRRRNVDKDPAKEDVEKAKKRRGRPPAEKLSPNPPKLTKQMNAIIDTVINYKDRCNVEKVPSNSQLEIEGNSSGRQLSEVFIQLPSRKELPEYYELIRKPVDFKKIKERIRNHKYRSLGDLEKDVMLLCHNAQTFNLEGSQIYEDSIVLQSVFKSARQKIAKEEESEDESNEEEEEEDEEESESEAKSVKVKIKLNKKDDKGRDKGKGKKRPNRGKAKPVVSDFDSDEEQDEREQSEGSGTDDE

In the case of `CC(C)n1c2cc(N3CCC(N4CCC(c5ccc(NC6CCC(=O)NC6=O)cc5F)CC4)CC3)ccc2n2c3cccc(Cl)c3c(=O)nc12` (stereo not shown) [Compound 29, 3-((4-(1′-(4-chloro-7-isopropyl-5-oxo-5,7-dihydrobenzo[4,5]imidazo[1,2-a]quinazolin-9-yl)-[1,4′-bipiperidin]-4-yl)-3-fluorophenyl)amino)piperidine-2,6-dione-HCl salt], the inhibition at 0.1 µM stood at 97% at SMARCA4 and 96% at SMARCA2. For the same compound, the concentration giving a half-maximal response (EC50) in the assay with MV-4-11 cells and with SK-MEL-5 cells was below 10 nM each time.

Consider `Cn1c2cc(N3CCC(N4CCC(c5ccc(C6CCC(=O)NC6=O)cc5)CC4)CC3)ccc2n2c3cccc(N)c3c(=O)nc12` (stereo not shown) [Compound 20, 3-(4-(1′-(4-amino-7-methyl-5-oxo-5,7-dihydrobenzo[4,5]imidazo[1,2-a]quinazolin-9-yl)-[1,4′-bipiperidin]-4-yl)phenyl)piperidine-2,6-dione], for which the inhibition at 0.1 µM on SMARCA4 came out at 81%; on SMARCA2, 80%. Besides, the 50% effective concentration (EC50) in the assay with MV-4-11 cells is above 100 nM; with SK-MEL-5 cells it was 10 to 100 nM.

As for `O=C1CCC(c2ccc(C3CCN(C4CCN(c5ccc6c(c5)n(C5CCCC5)c5nc(=O)c7c(Br)cccc7n65)CC4)CC3)cc2)C(=O)N1` (stereo not shown) [Compound 4, 3-(4-(1′-(4-bromo-7-cyclopentyl-5-oxo-5,7-dihydrobenzo[4,5]imidazo[1,2-a]quinazolin-9-yl)-[1,4′-bipiperidin]-4-yl)phenyl)piperidine-2,6-dione], the inhibition at 0.1 µM on SMARCA4 was found to be 97%; on SMARCA2, 90%. The concentration for a half-maximal effect (EC50) with MV-4-11 cells and in the assay with SK-MEL-5 cells was below 10 nM in each case.

Take `O=C1CCC(c2ccc(N3CCN(C4CCN(c5ccc6c(c5)n(C5CCCC5)c5nc(=O)c7c(Br)cccc7n65)CC4)CC3)cc2)C(=O)N1` (stereo not shown) [Compound 6, 3-(4-(4-(1-(4-bromo-7-cyclopentyl-5-oxo-5,7-dihydrobenzo[4,5]imidazo[1,2-a]quinazolin-9-yl)piperidin-4-yl)piperazin-1-yl)phenyl)piperidine-2,6-dione]: the inhibition at 0.1 µM at SMARCA4 came to 90%; on SMARCA2, 96%. Further, the 50% effective concentration (EC50) was above 100 nM with MV-4-11 cells and below 10 nM in the assay with SK-MEL-5 cells.

On to `CC(C)n1c2cc(N3CCC(N4CCC(c5ccc(C6CCC(=O)NC6=O)cc5)CC4)CC3)ccc2n2c3cccc(N)c3c(=O)nc12` (stereo not shown) [Compound 21, 3-(4-(1′-(4-amino-7-isopropyl-5-oxo-5,7-dihydrobenzo[4,5]imidazo[1,2-a]quinazolin-9-yl)-[1,4′-bipiperidin]-4-yl)phenyl)piperidine-2,6-dione], for which the inhibition at 0.1 µM was 75% at SMARCA4 and 86% on SMARCA2. Besides, the half-maximal effective concentration (EC50) in the assay on MV-4-11 cells was above 100 nM; in the assay with SK-MEL-5 cells, 10 to 100 nM.

As for `Cn1c2cc(N3CCC(N4CCC(c5ccc(NC6CCC(=O)NC6=O)cc5F)CC4)CC3)ccc2n2c3cccc(Br)c3c(=O)nc12` (stereo not shown) [Compound 16, 3-((4-(1′-(4-bromo-7-methyl-5-oxo-5,7-dihydrobenzo[4,5]imidazo[1,2-a]quinazolin-9-yl)-[1,4′-bipiperidin]-4-yl)-3-fluorophenyl)amino)piperidine-2,6-dione], the inhibition at 0.1 µM is 100% on SMARCA4 and 99% on SMARCA2. For the same compound, the EC50 with MV-4-11 cells and in the assay on SK-MEL-5 cells was below 10 nM throughout.

In the case of `Cn1c2cc(N3CCC(N4CCC(c5ccc6c(c5)CN(C5CCC(=O)NC5=O)C6=O)CC4)CC3)ccc2n2c3cccc(Br)c3c(=O)nc12` (stereo not shown) [Compound 14, 3-(5-(1′-(4-bromo-7-methyl-5-oxo-5,7-dihydrobenzo[4,5]imidazo[1,2-a]quinazolin-9-yl)-[1,4′-bipiperidin]-4-yl)-1-oxoisoindolin-2-yl)piperidine-2,6-dione], the inhibition at 0.1 µM turned out to be 94% at SMARCA4 and 100% on SMARCA2. Besides, the EC50 in the assay with MV-4-11 cells and with SK-MEL-5 cells was below 10 nM in each case.
